Tested on: CD-1 mice
Test: Model of scratching induced by histamine in CD-1 mice (assessment of H4 antagonism)
Format: in vivo
Settings: 30 mg/kg oral gavage 30 min before i.d. histamine; bouts counted for 20 minutes; female CD-1 mice
Protocol: Assessment of H4 Antagonism—Model of Scratching Induced by Histamine in CD-1 mice.
Female CD-1 mice (Charles River, Hollister, Calif.), approximately 10 weeks old were housed under controlled conditions (12 h light: 12 h dark, 21° C.) and allowed ad libitum access to food (Purina LabDiet 5P14) and water. Animals were deprived of access to food and water for 1 hour during the experimental itch protocol. All studies were performed under the guidelines of the Institutional Animal Care and Use Committee of Kalypsys, Inc.
At least 24 hours prior to study initiation, the hair on the rostral dorsum of the animal was clipped to clear a location for intradermal (i.d.) injection of pruritogen (histamine, dissolved in Dulbecco's PBS [pH 7.4] at a concentration of 10 μmol per 20 μL). Animals were dosed by oral gavage with vehicle (9/0.5/0.5/90 PEG-400/Tween-80/PVP-K30/1% carboxymethylcellulose in water) or test compounds (formulated as suspensions in vehicle) at 30 mg/kg in 200 μL by means of a 20 gauge 1.5″ feeding needle affixed to a 1 mL syringe. There were 8 mice per study group. Thirty minutes after oral dosing, animals were injected i.d. with 20 μL of histamine. Immediately afterward animals were placed into individual sections of a standard acrylic cage for observation, which was recorded digitally for a 20 minute period by video cameras (Panasonic SDR-S70/PC) for later review.
Quantitation of induced itch was measured as described previously (Bell, J. K. et al., British Journal of Pharmacology, 142:374-380, 2004) by counting the number of scratching bouts per animal in the 20 minute period after i.d. injection. A scratching bout was defined as three rapid scratch movements of the hind paw in the area of the injection site. Activity with the fore paws was deemed to be grooming and not scratching, and thus was not counted. All data were analyzed using GraphPad Prism (San Diego, Calif.) software, and reported as mean percentage reduction in scratching bouts versus vehicle control. The significance of antagonist effect on agonist-induced itching was analyzed using the nonparametric Mann-Whitney test with P values <0.05 being designated as statistically significant.
Data reported as NT refers to the example having been not tested. It is expected that these compounds when tested will be active and will have utility similar to those that have been tested. In Table 2 below, entries with superscript “1” are statistically significant according to the criteria outlined in the protocol above. Entries with superscript “2” are examples that have been tested on two separate days and the results reported below are the mean of the two experiments

| SMILES | Scratching Bouts (% change from vehicle control) |
| --- | --- |
| CN1CCN(c2nc3ccc(Cl)cc3n3cnnc23)CC1 [Example 55, 8-chloro-4-(4-methylpiperazin-1-yl)-[1,2,4]triazolo[4,3-a]quinoxaline] | −65^1,2% |
| Clc1ccc2nc(N3CCNCC3)c3nncn3c2c1 [Example 57, 8-chloro-4-(piperazin-1-yl)-[1,2,4]triazolo[4,3-a]quinoxaline] | −66^1% |
